Measured values from paper PMC6274455, “Isolation of α-Amylase Inhibitors from Kadsura longipedunculata Using a High-Speed Counter-Current Chromatography Target Guided by Centrifugal Ultrafiltration with LC-MS” (Molecules, 2016).
Where two headings read alike, the source gives them in different places.

Target: T1, α-amylase (Sus scrofa, UniProt P00690)
T1 construct: gene AMY2
T1 sequence (P00690 16-511): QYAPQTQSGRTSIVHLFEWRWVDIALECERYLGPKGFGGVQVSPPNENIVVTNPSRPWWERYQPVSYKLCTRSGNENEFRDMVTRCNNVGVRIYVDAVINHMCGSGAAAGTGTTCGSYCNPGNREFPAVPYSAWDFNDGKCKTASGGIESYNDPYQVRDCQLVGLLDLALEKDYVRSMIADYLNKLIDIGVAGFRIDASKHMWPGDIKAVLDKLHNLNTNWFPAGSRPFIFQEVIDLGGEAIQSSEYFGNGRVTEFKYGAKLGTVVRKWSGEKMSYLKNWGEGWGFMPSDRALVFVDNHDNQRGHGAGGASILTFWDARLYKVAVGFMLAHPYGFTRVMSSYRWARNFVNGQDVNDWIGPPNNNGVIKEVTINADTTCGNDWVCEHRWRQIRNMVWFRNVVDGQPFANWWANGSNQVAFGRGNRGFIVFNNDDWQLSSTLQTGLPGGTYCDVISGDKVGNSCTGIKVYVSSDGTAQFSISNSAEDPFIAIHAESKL
Assay: α-amylase inhibition assay of isolated compound; also captured by centrifugal ultrafiltration LC-MS with active but not denatured enzyme
Format: biochemical

C[C@@H]1O[C@@H](Oc2c(-c3ccc(O)c(O)c3)oc3cc(O)cc(O)c3c2=O)[C@H](O)[C@H](O)[C@H]1O [compound 1, quercetin-3-O-rhamnoside]
IC50: 28.8 µM

O=C(O)c1ccc(O)c(O)c1 [compound 2, protocatechuic acid]
IC50 (read-out: IC50): 12.5 µM
